One compound from patent US6432973B1, “Water soluble rapamycin esters” (Wyeth, priority 2000, dated 2002) can be followed below.

For series [1], the system named is U87MG human glioblastoma cells. The series can be described thus: inhibition of U87MG human glioblastoma cell growth (3H-thymidine incorporation). Type of series: cell-based. Conditions: U-87 MG, 48 hours incubation. The protocol: The antitumor activity of the compounds of this invention were confirmed in a standard pharmacological test procedure which measures the inhibition of U87MG human glioblastoma cell growth (as a function of ^3H-thymidine incorporation), using CCl-779-PEG 5000 ester (Compound III) and CCl-779-(PEG 5000)2 ester (Compound IV) as representative compounds of this invention. The following briefly describes the procedure used and results obtained. U87MG human glioblastoma cells (ATCC #HTB-14; available from the American Type Culture Collection; 10801 University Boulevard; Manassas, Va. 20110;), were grown in the following media.
Growth Medium: BRL Minimum Essential Medium with Earle Salts (500 mL)
+5 mL BRL MEM Non-Essential Amino Acids (10 mM)
+5 mL BRL Na Pyruvate Solution (100 mM)
+5 mL BRL L-Glutamine 200 mM
+50 mL BRL Fetal Bovine Serum (Qualified)
1. Cells were trypsinized and plated at a concentration of 10^4 cells/well in a final volume of 200 μL growth medium in 96-well flat bottom plates and allowed to adhere for 24 hours at 37° C.
2. The media was removed by aspiration with care to not disturb the cell monolayer. 200 μL of fresh growth media was added per well, allowing enough wells for samples to be run in triplicate. Test compounds were added in 10 μL phosphate buffer solution (PBS) and incubated for another 48 hours at 37° C.
3. […]
4. […] Mats were counted in a Wallac Betaplate counter.
On the technique in general: Uptake of a labelled nucleoside into DNA is a usual measure of proliferation.

The nature of another series: water solubility. Type of series: physicochemical. The source says:
Such doses may be administered in any manner useful in directing the active compounds herein to the recipient's bloodstream, including orally, via implants, parenterally (including intravenous, intraperitoneal and subcutaneous injections), rectally, intranasally, vaginally, and transdermally. […] This advantage is particularly important for oral and parenteral administration.

The structures appear in SMILES notation. In brackets after ≈: the same amount, converted by molar mass. Where only a bound is given, the exact number is not on record here.

The term IC50 denotes the point on the concentration scale where inhibition reaches its midpoint. One may read the solubility as the concentration that dissolves in the medium under given conditions. Low values mean a poorly soluble substance, high ones a readily soluble substance. In turn, `CO[C@H]1C[C@@H]2CC[C@@H](C)[C@@](O)(O2)C(=O)C(=O)N2CCCC[C@H]2C(=O)O[C@H]([C@H](C)C[C@@H]2CC[C@@H](OC(=O)C(C)(CO)CO)[C@H](OC)C2)CC(=O)[C@H](C)/C=C(\C)[C@@H](O)[C@@H](OC)C(=O)[C@H](C)C[C@H](C)/C=C/C=C/C=C/1C` [CCI-779, rapamycin 42-ester with 3-hydroxy-2-(hydroxymethyl)-2-methylpropionic acid] displayed an IC50 in series [1] of 0.6 ng/mL (≈ 0.582 nM). Moreover, the solubility in “water solubility” was less than 1.1 µg/mL.
